Source: ChEMBL document CHEMBL1145289, “Propidium-based polyamine ligands as potent inhibitors of acetylcholinesterase and acetylcholinesterase-induced amyloid-beta aggregation” (J Med Chem, 2005)

Legend:
Cholinesterase = Cholinesterase (Homo sapiens, UniProt P06276)
Description: Inhibition of Butyrylcholinesterase

Acetylcholinesterase [1] = biological target: T1, Acetylcholinesterase (Homo sapiens, UniProt P22303)
Description: Inhibition of Acetylcholinesterase

Acetylcholinesterase [2] = biological target: T1, Acetylcholinesterase; remark: listed apart in the source
Description: Competitive inhibition constant for Acetylcholinesterase

Cholinesterase, sequence (P06276 whole entry): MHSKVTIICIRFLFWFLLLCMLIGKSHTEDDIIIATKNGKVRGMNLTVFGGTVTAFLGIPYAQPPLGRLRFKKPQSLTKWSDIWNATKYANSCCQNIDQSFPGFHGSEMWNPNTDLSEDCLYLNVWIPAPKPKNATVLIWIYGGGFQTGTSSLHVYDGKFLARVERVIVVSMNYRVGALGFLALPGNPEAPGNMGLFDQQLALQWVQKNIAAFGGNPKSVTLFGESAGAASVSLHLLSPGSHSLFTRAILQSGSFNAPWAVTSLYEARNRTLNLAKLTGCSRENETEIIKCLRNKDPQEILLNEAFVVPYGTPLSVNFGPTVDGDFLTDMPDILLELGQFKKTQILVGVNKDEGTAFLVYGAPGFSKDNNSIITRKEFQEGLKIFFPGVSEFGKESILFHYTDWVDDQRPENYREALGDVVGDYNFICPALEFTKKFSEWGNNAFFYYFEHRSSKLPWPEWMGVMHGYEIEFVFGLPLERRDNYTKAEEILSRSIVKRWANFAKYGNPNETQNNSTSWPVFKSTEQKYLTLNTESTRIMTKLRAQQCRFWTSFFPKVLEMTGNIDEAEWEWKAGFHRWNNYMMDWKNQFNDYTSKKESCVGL
T1 sequence (P22303 whole entry): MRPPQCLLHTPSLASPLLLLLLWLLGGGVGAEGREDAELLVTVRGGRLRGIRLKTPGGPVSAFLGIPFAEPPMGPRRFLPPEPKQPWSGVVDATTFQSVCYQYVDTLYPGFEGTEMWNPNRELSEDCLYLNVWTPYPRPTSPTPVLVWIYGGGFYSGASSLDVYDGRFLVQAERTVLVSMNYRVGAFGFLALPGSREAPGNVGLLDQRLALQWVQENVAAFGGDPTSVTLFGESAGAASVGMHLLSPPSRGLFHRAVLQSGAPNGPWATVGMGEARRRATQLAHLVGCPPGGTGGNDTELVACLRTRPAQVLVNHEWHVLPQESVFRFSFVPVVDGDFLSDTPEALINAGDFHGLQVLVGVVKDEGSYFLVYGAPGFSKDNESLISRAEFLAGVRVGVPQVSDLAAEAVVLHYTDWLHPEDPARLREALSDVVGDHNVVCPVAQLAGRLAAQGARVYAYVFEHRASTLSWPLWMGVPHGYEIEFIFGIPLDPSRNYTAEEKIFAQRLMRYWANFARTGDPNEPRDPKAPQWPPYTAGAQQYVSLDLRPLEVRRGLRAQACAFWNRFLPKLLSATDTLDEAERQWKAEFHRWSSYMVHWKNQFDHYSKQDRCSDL

| Compound | IC50 (Cholinesterase) | IC50 (Acetylcholinesterase [1]) | Ki (Acetylcholinesterase [2]) |
| --- | --- | --- | --- |
| COc1ccccc1CN(C)CCCCCC(=O)N(C)CCCCCCCCN(C)C(=O)CCCCCN(C)Cc1ccccc1OC [CAPROCTAMINE] | 11600 nM | – | – |
| COc1ccccc1CN(C)CCCN(C)CCCNCCC[n+]1c(-c2ccccc2)c2cc(N)ccc2c2ccc(N)cc21 | 2190 nM | 952 nM | 894 nM |
| Nc1ccc2c(c1)c(-c1ccccc1)[n+](CCCNCCCNCCCNc1c3c(nc4ccccc14)CCCC3)c1cc(N)ccc21 | 63.7 nM | 1.55 nM | 1.49 nM |
